Data: patent publication US20090317419A1, “Tetramers” (Duke University, priority 2008, published 2009)
Where “and” joins values, the source holds several entries; their conditions need not be identical. Identical values can stand only once. Like-named read-outs stand apart in the source and are kept apart here. Ends that are not written are not given here. * marks the point of attachment. Biotin = O=C1N[C@H]2[C@H](CS[C@H]2CCCCC(=O)*)N1

Columns and labels:
[1] = molecular target: gp41 MPER tetramer; experiment: SPR, captured mAb, tetramer injected
[2] = molecular target: gp41 ID tetramer; experiment: SPR, captured mAb, tetramer injected
[3] = molecular target: gp41 MPER tetramer; experiment: flow cytometry, gp41 MPER tetramer on a mixture of 15% 13H11 hybridoma cells and 85% F39F cells (FIG. 4B); the value follows the mixing ratio
[4] = molecular target: gp41 MPER tetramer; experiment: flow cytometry, gp41 MPER tetramer on the 15% 13H11 / 85% F39F cell mixture diluted tenfold with F39F cells (FIG. 4C); the value follows the mixing ratio
[5] = molecular target: gp41 MPER tetramer; experiment: flow cytometry, gp41 MPER tetramer on the 13H11 / F39F cell mixture diluted a hundredfold in all with F39F cells (FIG. 4D); the value follows the mixing ratio
[6] = system: mAb 7B2 (anti-gp41 immunodominant region); conditions: SPR, mAb 7B2 captured
Description: (§1) Surface Plasmon Resonance (SPR) measurements of tetramer binding to peptide epitopes. Tetramer binding assays were carried out on a BIAcore 3000 (BIAcore/GE Healthcare, Piscataway, N.J.) instrument using mAbs against each specific B cell epitope.
(§2) Each mAb (about 1000 RU) was first captured on anti-human Fc mAb (Pierce, Rockford, Ill.) immobilized on a CM5 sensor chip. Approximately 3000 RU of anti-human Fc mAb was covalently coupled to each flow cell of the sensor chip as described before (Alam et al, Journal of Immunology 178:4424-4435 (2007)). Each B cell tetramer was injected over its epitope specific mAb or a control surface immobilized with irrelevant mAb. For each tetramer binding curve, non-specific binding signals obtained from the control surface were subtracted. The binding assay was monitored at 25° C. and using PBS, pH 7.4, as the running buffer. The BIAevaluation 3.0 software (BIAcore/GE Healthcare, Piscataway, N.J.) was used for SPR binding data analyses.

[7] = system: mAb 7B2 on beads; conditions: flow cytometry
Description: (§3) Antibody-coated beads. Carboxyl-polystyrene beads (3.0-3.4 μm) (Spherotech, Inc., Lake Forest, Ill.) were resuspended in 0.01 M sodium acetate buffer (pH 5.0) and reacted (20° C.×1 hr) with 1-ethyl-3-(3-dimethylaminopropyl) carbodiimide hydrochloride (EDC) (Sigma-Aldrich, Co., St. Louis, Mo.) at a ratio of 3.1 mg beads to 1 mg EDC. Beads were washed with sodium acetate buffer, resuspended in a minimal volume before adding purified mAb in the same buffer (ratio of 16 mg beads to 1 mg mAb), incubated (20° C.×2 hrs), then washed with sodium acetate buffer. Beads were resuspended at 5% in PBS containing 1% bovine serum albumin and 0.02% sodium azide.
(§4) Use of antibody-coated beads and cell lines for tetramer quality control. Tetramer stocks were diluted to twice the desired final concentration in PBS containing 1% BSA. An equal volume of beads or cells at 5×10^5 up to 2×10^6 per sample were mixed with tetramer and incubated (4° C.×30 min). Beads or cells were washed with PBS+1% BSA before being fixed in 2% methanol-free formaldehyde (Polysciences, Inc, Warrington, Pa.) in PBS. Samples were stored at 4° C. prior to being analyzed by flow cytometry (BD LSR II, Becton Dickinson, Mountain View, Calif.). Data were analyzed using FlowJo (Tree Star, Ashland, Oreg.). For tetramer titration 40-80 ng tetramer per 10^6 cells/beads was serially diluted over 8-12 points. Optimal concentrations determined by this method were used for subsequent experiments. For cold competition experiments the incubation step was performed by staining with 10-fold excess unlabeled tetramer (4° C.×30 min) prior to the addition of APC-labeled tetramer. For cell dilution experiments, a mixture of mAb cell lines was made and then 1:10 serial dilutions of cells prepared. For cross competition experiments, mixtures of cells were prepared and then stained singly with anti-IgG reagents or tetramer, or the cells were doubly stained with both reagents either sequentially or concurrently.

[8] = system: 7B2 cells; conditions: flow cytometry
Description: as §4

[9] = system: total naïve splenic BALB/c B cells; conditions: APC-labeled tetramer
Description: (§5) Cell isolation, serum collection, and PBMC isolations. Heparinized or non-heparanized blood was collected sub-mandibularly 10 days after immunizations. For preparation of peripheral blood lymphocytes for B cell tetramer analysis, PBMC were isolated from blood collected in heparinized tubes (0.2 ml) using Lympholyte M (Cederlane). For Luminex and ELISA assays, sera was isolated from non-heparanized blood and stored at −20° C. until use. Spleen, bone marrow (BM), and peritoneal cavity (PerC) cells were also collected. For most immunizations, tissues were harvested after the 4th boost, except for kinetic studies, in which tissues from mice were harvested after 1, 3 or 7 days after a single immunization. For BM preparations, femora and tibiae were removed, aspirated with tissue medium using 23 gauge needles, filtered with 70 μm cell strainers (BD labware), and RBC-depleted using Tris-buffered ammonium chloride lysis. For splenocyte preparation, spleens were harvested and dissociated into single-cell suspensions either by passage through 70 μm cell strainers in tissue medium or by using frosted glass slides, and blood erythrocytes were depleted with ammonium chloride lysis. For isolation of peritoneal cells, peritoneal cavities of sacrificed mice were lavaged by injection with 10 ml of PBS, followed by gentle massage of the abdomen, and withdrawal of the peritoneal exudates. BM, splenic, and peritoneal single cell suspensions were centrifuged at 1500 rpm for 5 min and resuspended in 5, 10, and 1 ml of tissue media, respectively, for cell counts and immunofluorescence staining. Cell counts were performed in duplicate on a Coulter ZI Dual Threshold Cell Counter (Coulter).
(§6) Antibodies and flow cytometry. Immunofluorescent staining of single cell suspensions (≧2×10^6) was conducted using pre-mixed combinations of fluorochrome-labeled antibodies and APC-conjugated B cell tetramers at empirically-determined optimal concentrations. All antibodies were from BD unless otherwise stated. […] Other reagents included biotinylated antibodies against dump channel markers: Thy1 (Ox7; Abcam), F4/80 (BM8; Abcam), CD11c (clone HL3), Gr-1 (clone RB6-8C5), TER-119, and NK-1.1 (clone PK136), secondary staining SA-Texas Red conjugate; v-amine live/dead violet dye (Molecular Probes), and Fc block (anti-CD16/32; clone 2.4G2).
(§7) Staining was conducted at 4° C. in several sequential steps in FACS staining buffer (1×PBS with 2% FCS, 0.1% NaN3), washing twice between steps. First, cells were incubated with v-amine live/dead dye for 15 min. Next, cells were stained with APC-labeled tetramers for 30 min. Where applicable, this was preceded by addition of cold tetramer at 10 fold molar excess for 1 h. Finally, cells were stained with Fc block for 30 min, followed by incubation with combinations of primary antibody cocktails for 30 min, and secondary staining with SA-Texas Red for 30 min.
(§8) Data were acquired using an LSRII flow cytometer and Cell Quest software (BD Immunocytometry systems). A minimum of 250000 events were acquired per sample. FACS Analysis was performed using FlowJo software (Tree Star). For analysis, single cells were positively gated based on their forward scatter height vs. forward scatter area and side scatter height vs. side scatter area profiles, lymphocytes were then positively gated based on their forward and side scatter profile (live lymphocyte gate), residual dead cells were excluded with negative gating on v-amine live/dead dye, and all irrelevant non-B cells were excluded with negative gating on dump markers Thy1, F4/80, CD11c, Gr-1, TER-119, and NK-1.1.

[10] = system: B cell subsets from naive C57BL/6 mice
Description: as §5, §6, §7, §8
To examine if gp41 2F5 MPER epitope reactivity across B cell subsets mapped similarly on the IgH^b allotype, reactivity to gp41 2F5 MPER tetramers was measured by measuring the percentage of APC-labeled gp41 2F5 MPER tetramer-reactive cells in C57BL/6 bone marrow, splenic, and peritoneal B cell subsets (Table 10).

[11] = system: mAb F39F (anti-gp120 V3); conditions: SPR, mAb F39F captured, 25° C., PBS pH 7.4
Description: as §1, §2

[12] = system: V3 loop mAbs 7B9 and F39F on beads; conditions: flow cytometry
Description: as §3, §4

[13] = system: F39F cells; conditions: flow cytometry
Description: as §4

[14] = molecular target: 62.19 V3 tetramer
[15] = molecular target: 62.19 V3 tetramer; experiment: SPR, captured mAb, tetramer injected
[16] = molecular target: B.con03 V3 tetramer; experiment: SPR, captured mAb, tetramer injected
[17] = system: 2F5 mAb; experiment: Binding of alanine substituted gp41 MPER tetramers to 2F5 (antibody-coated beads and SPR); design: species or system human; conditions: flow cytometry on antibody-coated beads and SPR
Description: (§9) Data were analyzed using FlowJo (Tree Star, Ashland, Oreg.).
(§10) Development of gp41 MPER tetramers specific for neutralizing vs. non-neutralizing antibodies. […] Therefore, the next question asked was whether gp41 MPER tetramers could be made that preferentially react with either of these two prototype antibodies that would make it possible to discriminate between neutralizing 2F5-like gp41 MPER antibodies and non-neutralizing 13H11-like MPER antibodies. To address this issue, a series of gp41 MPER tetramers were made with alanine substitutions along the primary sequence (see Table 8) and assayed for the binding of 13H11 or 2F5 by flow cytometry on antibody-coated beads and by SPR (FIGS. 6C and 6D). […] Thus, tetramers made with the A13 or A15 mutant will bind B cells only with surface Ig similar to the non-neutralizing 13H11 antibody while tetramers made with the A14, A18, or A20 mutants will bind B cells only with surface Ig with specificities similar to the neutralizing 2F5 antibody.

[18] = system: 13H11 mAb; experiment: Binding of alanine substituted gp41 MPER tetramers to 13H11 (antibody-coated beads and SPR); design: species or system mouse; conditions: flow cytometry on antibody-coated beads and SPR
Description: as §9, §10

62.19 V3 tetramer, sequence (P22629 37-163 limits assumed): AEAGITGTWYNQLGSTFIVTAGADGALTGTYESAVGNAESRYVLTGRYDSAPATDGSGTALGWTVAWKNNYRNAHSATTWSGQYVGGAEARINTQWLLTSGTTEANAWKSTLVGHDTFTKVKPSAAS
gp41 MPER tetramer, sequence (P22629 37-163 limits assumed): as above
gp41 ID tetramer, sequence (P22629 37-163 limits assumed): as above
B.con03 V3 tetramer, sequence (P22629 37-163 limits assumed): as above

2F5 (antibody)
koff [1]: 0.00037 s⁻¹ | kon [1]: 174000 M⁻¹ s⁻¹

7B2 (antibody)
koff [2]: 0.0011 s⁻¹ | kon [2]: 1200 M⁻¹ s⁻¹

13H11 (antibody)
koff [1]: 0.0081 s⁻¹ | kon [1]: 206000 M⁻¹ s⁻¹ | percent of cells of the mixture stained with the tetramer [3]: 15.1% | percent of cells of the mixture stained with the tetramer [4]: 1.47% | percent of cells of the mixture stained with the tetramer over background [5]: 0.12%

Biotin-GGGKQLQARVLAVERYLKDQQLLGIWGCSGKLICTTAV (cysteine pairing not given here) [gp41 ID tetramer]
koff [6]: 1.1 s^−1 × 10^−3 | kon [6]: 1.2 M^−1s^−1 × 10^3 | binding to antibody-coated beads [7]: bound only to mAb 7B2 | binding to mAb cell line [8]: bound

Biotin-GGGNKEQDQAEESLQLWEKLNWL [gp41 MPER scrambled tetramer]
binding to total naïve splenic B cells [9]: Negligible binding | % of subset binding tetramer ± SEM ([10]; C57BL/6, Bone marrow, Immature): 0.10 ± 0.02% | % of subset binding tetramer ± SEM ([10]; C57BL/6, Bone marrow, MF): 0.09 ± 0.02% | % of subset binding tetramer ± SEM ([10]; C57BL/6, Bone marrow, Pro/pre): 0.06 ± 0.01% | % of subset binding tetramer ± SEM ([10]; C57BL/6, Bone marrow, T1): 0.12 ± 0.02% | % of subset binding tetramer ± SEM ([10]; C57BL/6, Bone marrow, T2): 0.11 ± 0.01% | % of subset binding tetramer ± SEM ([10]; C57BL/6, Peritoneum, B1a): 0.14 ± 0.03% | % of subset binding tetramer ± SEM ([10]; C57BL/6, Peritoneum, B1b): 0.13 ± 0.02% | % of subset binding tetramer ± SEM ([10]; C57BL/6, Peritoneum, B2): 0.15 ± 0.03% | % of subset binding tetramer ± SEM ([10]; C57BL/6, Spleen, MF): 0.11 ± 0.02% | % of subset binding tetramer ± SEM ([10]; C57BL/6, Spleen, MZ): 0.09 ± 0.01% | % of subset binding tetramer ± SEM ([10]; C57BL/6, Spleen, T1): 0.08 ± 0.01% | % of subset binding tetramer ± SEM ([10]; C57BL/6, Spleen, T2): 0.10 ± 0.02%

Biotin-GGGQLDSIQKEVYQLGRQLVWCTARLATKLVGKACGIL (cysteine pairing not given here) [gp41 ID scrambled tetramer]
binding to antibody-coated beads [7]: higher background | binding to mAb cell line [8]: higher background

Biotin-GGGTRPNNNTRKSIHIGPGRAFYTTGEIIGDIRQAH [B.con03 V3 tetramer]
koff [11]: 0.65 s^−1 × 10^−3 | kon [11]: 83.4 M^−1s^−1 × 10^3 | binding to antibody-coated beads [12]: bound to both V3 loop mAbs 7B9 and F39F | binding to mAb cell line [13]: bound

F39F (antibody)
% of cells in the tetramer-positive quadrant [14]: 6% | % of cells positive for both tetramer and anti-IgG [14]: 6.34% and 6.22% and 6.05% | koff [15]: 0.0006 s⁻¹ | kon [15]: 60500 M⁻¹ s⁻¹ | koff [16]: 0.00065 s⁻¹ | kon [16]: 83400 M⁻¹ s⁻¹

QQEKNEQELLELAKWASLWN (QQEKNEQELLELAKWASLWN; also: tetramer with streptavidin) [A13, alanine substituted gp41 MPER tetramer]
binding to 2F5 mAb [17]: eliminated binding

QQEKNEQELLELDAWASLWN (QQEKNEQELLELDAWASLWN; also: tetramer with streptavidin) [A14, alanine substituted gp41 MPER tetramer]
binding to non-neutralizing mAb 13H11 [18]: significantly reduced or eliminated binding

QQEKNEQELLELDKAASLWN (QQEKNEQELLELDKAASLWN; also: tetramer with streptavidin) [A15, alanine substituted gp41 MPER tetramer]
binding to 2F5 mAb [17]: eliminated binding

QQEKNEQELLELDKWASAWN (Biotin-GGGQQEKNEQELLELDKWASAWN; also: tetramer with streptavidin) [A18, alanine substituted gp41 MPER tetramer]
binding to non-neutralizing mAb 13H11 [18]: significantly reduced or eliminated binding

QQEKNEQELLELDKWASLWA (QQEKNEQELLELDKWASLWA; also: tetramer with streptavidin) [A20, alanine substituted gp41 MPER tetramer]
binding to non-neutralizing mAb 13H11 [18]: significantly reduced or eliminated binding
